Several values for one entry are separate records, joined by “and”; a condition that tells them apart may be missing. Identical values can stand only once. Like-named read-outs stand apart in the source and are kept apart here.
What was measured:
BoNT/A LC [1] = molecular target: T1, BoNT/A LC (Clostridium botulinum, UniProt P0DPI0); experiment: biochemical; parameters: species or system C. botulinum; conditions: read-out: % inhibition of the LCA endopeptidase activity
BoNT/A LC [2] = molecular target: T1, BoNT/A LC; experiment: biochemical; type: biochemical, C. botulinum
BoNT/A LC [3] = molecular target: T1, BoNT/A LC; experiment: biochemical; type: binding, C. botulinum
BoNT/A LC [4] = molecular target: T1, BoNT/A LC; experiment: biochemical; type: binding, C. botulinum; remark: listed apart in the source

T1 sequence (P0DPI0 2-448 limits assumed): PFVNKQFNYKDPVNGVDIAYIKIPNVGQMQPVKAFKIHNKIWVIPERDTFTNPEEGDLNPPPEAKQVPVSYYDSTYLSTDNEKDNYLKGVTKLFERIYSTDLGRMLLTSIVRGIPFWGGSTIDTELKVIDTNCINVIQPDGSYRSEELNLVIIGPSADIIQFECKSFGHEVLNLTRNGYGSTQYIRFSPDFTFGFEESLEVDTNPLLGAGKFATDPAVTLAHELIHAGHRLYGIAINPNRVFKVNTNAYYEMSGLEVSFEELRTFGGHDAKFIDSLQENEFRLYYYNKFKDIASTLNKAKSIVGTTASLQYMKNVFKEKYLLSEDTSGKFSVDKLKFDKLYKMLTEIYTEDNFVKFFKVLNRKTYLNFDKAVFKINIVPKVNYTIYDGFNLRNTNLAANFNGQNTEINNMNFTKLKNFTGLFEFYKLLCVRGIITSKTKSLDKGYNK

SMILES: O=c1ccc2cc3c(-c4ccc([N+](=O)[O-])cc4)coc3cc2o1 [Compound 1, 3-(4-nitrophenyl)-7H-furo[3,2-g]chromen-7-one]
- inhibition at 81 µM (BoNT/A LC [1]): ~100%
- Vmax (BoNT/A LC [2]): 2.13 ± 0.5 RFU/s and 2.09 ± 0.2 RFU/s and 1.56 ± 1.1 RFU/s
- type of inhibition (BoNT/A LC [2]): mixed (non-competitive) type of inhibition
- Ki (BoNT/A LC [2]; Ki): 5.8 ± 0.7 µM
- Ki (BoNT/A LC [2]; Ki′): 11.5 ± 2.9 µM
- corrected intensity of Trp fluorescence signal at λmax of BoNT/A LC (signal reduced to) (BoNT/A LC [3]): 88% and 84% and 73% and 59%
- n (number of binding sites) (BoNT/A LC [3]): 0.90
- ΔH (BoNT/A LC [3]): -16.9 kcal/mol
- ΔS (BoNT/A LC [3]): −0.15 kJ · mol^−1 K^−1
- Kd (BoNT/A LC [3]; Ka (binding constant)): 38 µM and 115 µM
- Ka (association constant) (BoNT/A LC [4]): 760900 M⁻¹
- Kd (BoNT/A LC [4]): 1.31 µM
- N (number of binding sites, binding stoichiometry) (BoNT/A LC [4]): 2.8 and 2.760
- ΔH (change in enthalpy) (BoNT/A LC [4]): -2.39 kcal/mol
- ΔS (change in entropy) (BoNT/A LC [4]): 79.05 J/mol · K
- antidote activity against paralytic actions of BoNT (BoNT): efficient antidote with the ability to mitigate the paralytic actions of BoNT

From patent US20220226282A1 (priority 2021, published 2022)
